Consider 25 molecules from patent US20100010057A1, “THIAZOLE DERIVATIVES AS INHIBITORS OF P13 KINASE” (CHROMA THERAPEUTICS LTD., priority 2006, published 2010).

One test has as its target PI3Kγ (human) (Homo sapiens, UniProt P48736). As to the kind of experiment: Inhibition of PI3 kinase γ activity (HTRF). The format is biochemical. To be noted: ATP at or close to Km, IC50 range, read-out: Inhibitor activity versus PI3 Kinase γ. As for the experimental part:
(B) Inhibition of PI3 Kinase V Activity
In a final reaction volume of 20 μl, PI3Kγ (human) is incubated in assay buffer containing 10 μM phosphatidylinositol-4,5-bisphosphate and MgATP (concentration as required). The reaction is initiated by the addition of the MgATP mix. After incubation for 30 minutes at room temperature, the reaction is stopped by the addition of 5 μl of stop solution containing EDTA and biotinylated phosphatidylinositol-3,4,5-trisphosphate. Finally, 5 μl of detection buffer is added, which contains europium-labelled anti-GST monoclonal antibody, GST-tagged GRP1 PH domain and streptavidin-allophycocyanin. The plate is then read in time-resolved fluorescence mode and the homogenous time-resolved fluorescence (HTRF) signal is determined according to the formula HTRF=10000×(Em665 nm/Em620 nm).
Duplicate data points are generated from a ⅓ log dilution series of a stock solution of compound in DMSO. Nine dilutions steps are made from a top concentration of 10 μM, and a ‘no compound’ blank is included. The HTRF PI 3-Kinase assay is performed at an ATP concentration at, or close to, the Km. HTRF ratio data is transformed into % activity of controls and analysed with a four parameter sigmoidal dose-response (variable slope) application. QC criteria is based on Top, Bottom, Hill slope, r^2 and IC50, the concentration giving 50% inhibition, which is reported.
(§1) For each of the assays (B), (C) and (D) above, IC50 values are allocated to one of three ranges as follows: […]

Another test concerns THP-1 cells. As to the kind of experiment: LPS-stimulation of THP-1 cells, TNF-α release. The note with it: Homo sapiens, LPS 1 μg/ml, 6 h, TNF-α by ELISA, IC50 range, read-out: Inhibitor activity versus THP-1 TNFα release. The format is cell-based. The procedure: (C) LPS-Stimulation of THP-1 Cells
THP-1 cells are plated in 100 μl at a density of 4×10^4 cells/well in V-bottomed 96 well tissue culture treated plates and incubated at 37° C. in 5% CO2 for 16 h. 2 h after the addition of the inhibitor in 100 μl of tissue culture media, the cells are stimulated with LPS (E. coli strain 005:B5, Sigma) at a final concentration of 1 μg/ml and incubated at 37° C. in 5% CO2 for 6 h. TNF-α levels are measured from cell-free supernatants by sandwich ELISA (R&D Systems #QTA00B)
as §1

PI3Kγ (human), sequence (P48736 whole entry): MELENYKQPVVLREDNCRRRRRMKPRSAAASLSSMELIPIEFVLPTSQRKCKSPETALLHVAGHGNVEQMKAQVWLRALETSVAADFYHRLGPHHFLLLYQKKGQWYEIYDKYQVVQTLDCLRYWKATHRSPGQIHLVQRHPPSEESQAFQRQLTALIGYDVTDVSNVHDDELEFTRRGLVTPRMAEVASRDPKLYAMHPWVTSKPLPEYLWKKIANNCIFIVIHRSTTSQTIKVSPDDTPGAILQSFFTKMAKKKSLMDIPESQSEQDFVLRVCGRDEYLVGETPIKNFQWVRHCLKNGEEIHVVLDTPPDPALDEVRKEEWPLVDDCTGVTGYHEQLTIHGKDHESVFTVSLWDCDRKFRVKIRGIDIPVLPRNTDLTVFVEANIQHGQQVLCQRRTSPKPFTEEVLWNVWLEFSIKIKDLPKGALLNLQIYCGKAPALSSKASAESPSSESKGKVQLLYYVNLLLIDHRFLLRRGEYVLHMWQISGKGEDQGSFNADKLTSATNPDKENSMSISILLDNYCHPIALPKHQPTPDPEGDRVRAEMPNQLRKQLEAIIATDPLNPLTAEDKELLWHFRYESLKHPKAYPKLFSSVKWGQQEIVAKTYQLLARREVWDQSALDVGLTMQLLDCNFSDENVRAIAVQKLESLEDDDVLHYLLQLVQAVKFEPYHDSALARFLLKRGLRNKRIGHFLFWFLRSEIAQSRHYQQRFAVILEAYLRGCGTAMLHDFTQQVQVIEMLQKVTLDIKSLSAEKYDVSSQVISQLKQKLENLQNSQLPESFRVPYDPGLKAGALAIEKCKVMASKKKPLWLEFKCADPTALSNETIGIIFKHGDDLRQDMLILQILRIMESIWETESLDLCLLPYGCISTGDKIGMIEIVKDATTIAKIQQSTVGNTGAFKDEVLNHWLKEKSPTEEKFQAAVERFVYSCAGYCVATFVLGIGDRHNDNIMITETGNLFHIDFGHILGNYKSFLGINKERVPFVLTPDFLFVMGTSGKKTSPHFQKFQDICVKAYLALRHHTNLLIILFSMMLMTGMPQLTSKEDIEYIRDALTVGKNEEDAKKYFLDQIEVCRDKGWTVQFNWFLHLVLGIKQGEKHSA

In the case of `Cc1nc(NC(=O)N[C@@H](COC(C)(C)C)C(=O)OC2CCCC2)sc1-c1ccc(Cl)c(S(C)(=O)=O)c1` [Example 4, Cyclopentyl O-tert-butyl-N-({5-[4-chloro-3-(methylsulfonyl)phenyl]-4-methyl-1,3-thiazol-2-yl}carbamoyl)-L-serinate], the figures for the IC50 on PI3Kγ (human) and in the test on THP-1 cells were 0.1 to 1 µM and above 1 µM, respectively. `Cc1nc(NC(=O)CCCN[C@@H](CCC(=O)O)C(=O)OC2CCCC2)sc1-c1ccc(Cl)c(S(C)(=O)=O)c1` [Example 8, (4S)-4-{[4-({5-[4-Chloro-3-(methylsulfonyl)phenyl]-4-methyl-1,3-thiazol-2-yl}amino)-4-oxobutyl]amino}-5-(cyclopentyloxy)-5-oxopentanoic acid]: the IC50 at PI3Kγ (human) was in the range of 0.1 to 1 µM.

On to `Cc1nc(NC(=O)CCCN[C@@H](C(=O)OC2CCCC2)c2ccccc2)sc1-c1ccc(Cl)c(S(C)(=O)=O)c1` [Example 9, Cyclopentyl (2R)-{[4-({5-[4-chloro-3-(methylsulfonyl)phenyl]-4-methyl-1,3-thiazol-2-yl}amino)-4-oxobutyl]amino}(phenyl)acetate], for which the IC50 at PI3Kγ (human) is 0.1 to 1 µM; in the test on THP-1 cells it was above 1 µM. The corresponding values for `Cc1nc(NC(=O)CCCN[C@H](C(=O)OC2CCCC2)c2ccccc2)sc1-c1ccc(Cl)c(S(C)(=O)=O)c1` [Example 10, Cyclopentyl (2S)-{[4-({5-[4-chloro-3-(methylsulfonyl)phenyl]-4-methyl-1,3-thiazol-2-yl}amino)-4-oxobutyl]amino}(phenyl)acetate] are 0.1 to 1 µM and above 1 µM. Take `Cc1nc(NC(=O)CCCN[C@@H](Cc2ccccc2)C(=O)OC2CCCC2)sc1-c1ccc(Cl)c(S(C)(=O)=O)c1` [Example 11, Cyclopentyl N-[4-({5-[4-chloro-3-(methylsulfonyl)phenyl]-4-methyl-1,3-thiazol-2-yl}amino)-4-oxobutyl]-L-phenylalaninate]: the IC50 at PI3Kγ (human) and in the test on THP-1 cells was above 1 µM in each case. On to `Cc1nc(NC(=O)CCCN[C@@H](COC(C)(C)C)C(=O)OC2CCCC2)sc1-c1ccc(Cl)c(S(C)(=O)=O)c1` [Example 12, Cyclopentyl O-tert-butyl-N-[4-({5-[4-chloro-3-(methylsulfonyl)phenyl]-4-methyl-1,3-thiazol-2-yl}amino)-4-oxobutyl]-L-serinate], for which the IC50 on PI3Kγ (human) and in the test on THP-1 cells was above 1 µM each time. In the case of `Cc1nc(NC(=O)CCCN[C@H](C(=O)OC2CCCC2)C2CCCCC2)sc1-c1ccc(Cl)c(S(C)(=O)=O)c1` [Example 13, Cyclopentyl (2S)-{[4-({5-[4-chloro-3-(methylsulfonyl)phenyl]-4-methyl-1,3-thiazol-2-yl}amino)-4-oxobutyl]amino}(cyclohexyl)acetate], the IC50 at PI3Kγ (human) and in the test with THP-1 cells was above 1 µM in each case.

`Cc1nc(NC(=O)CCCN[C@@H](CC(C)C)C(=O)OC(C)(C)C)sc1-c1ccc(Cl)c(S(C)(=O)=O)c1` [Example 14, tert-Butyl N-[4-({5-[4-chloro-3-(methylsulfonyl)phenyl]-4-methyl-1,3-thiazol-2-yl}amino)-4-oxobutyl]-L-leucinate]: the IC50 on PI3Kγ (human) and with THP-1 cells was above 1 µM in each case.

As to `Cc1nc(NC(=O)CCCN[C@@H](COC(C)(C)C)C(=O)OC(C)(C)C)sc1-c1ccc(Cl)c(S(C)(=O)=O)c1` [Example 15, tert-Butyl O-tert-butyl-N-[4-({5-[4-chloro-3-(methylsulfonyl)phenyl]-4-methyl-1,3-thiazol-2-yl}amino)-4-oxobutyl]-L-serinate], the IC50 at PI3Kγ (human) and in the test with THP-1 cells was above 1 µM in each case. Regarding `Cc1nc(NC(=O)N[C@@H](COC(C)(C)C)C(=O)O)sc1-c1ccc(Cl)c(S(C)(=O)=O)c1` [Example 30, O-tert-Butyl-N-({5-[4-chloro-3-(methylsulfonyl)phenyl]-4-methyl-1,3-thiazol-2-yl}carbamoyl)-L-serine], the IC50 on PI3Kγ (human) was above 1 µM. For `Cc1nc(NC(=O)N[C@@H](Cc2ccccc2)C(=O)O)sc1-c1ccc(Cl)c(S(C)(=O)=O)c1` [Example 31, N-({5-[4-Chloro-3-(methylsulfonyl)phenyl]-4-methyl-1,3-thiazol-2-yl}carbamoyl)-L-phenylalanine], the IC50 at PI3Kγ (human) is above 1 µM. Turning to `Cc1nc(NC(=O)CCCN[C@@H](CC(C)C)C(=O)O)sc1-c1ccc(Cl)c(S(C)(=O)=O)c1` [Example 32, N-4-({5-[4-Chloro-3-(methylsulfonyl)phenyl-4-methyl-1,3-thiazol-2-yl}amino)-4-oxobutyl]-L-leucine], the IC50 on PI3Kγ (human) is above 1 µM. Turning to `Cc1nc(NC(=O)CCCN[C@@H](CCC(=O)O)C(=O)O)sc1-c1ccc(Cl)c(S(C)(=O)=O)c1` [Example 33, N-[4-({5-[4-Chloro-3-(methylsulfonyl)phenyl]-4-methyl-1,3-thiazol-2-yl}amino)-4-oxobutyl]-L-glutamic acid], the IC50 on PI3Kγ (human) is above 1 µM. Regarding `Cc1nc(NC(=O)CCCN[C@@H](C(=O)O)c2ccccc2)sc1-c1ccc(Cl)c(S(C)(=O)=O)c1` [Example 34, (2R)-{[4-({5-[4-Chloro-3-(methylsulfonyl)phenyl]-4-methyl-1,3-thiazol-2-yl}amino)-4-oxobutyl]amino}(phenyl)acetic acid], the IC50 at PI3Kγ (human) is above 1 µM.

As for `Cc1nc(NC(=O)CCCN[C@H](C(=O)O)c2ccccc2)sc1-c1ccc(Cl)c(S(C)(=O)=O)c1` [Example 35, (2S)-{[4-({5-[4-Chloro-3-(methylsulfonyl)phenyl]-4-methyl-1,3-thiazol-2-yl}amino)-4-oxobutyl]amino}(phenyl)acetic acid], on PI3Kγ (human), the IC50 was above 1 µM. Regarding `Cc1nc(NC(=O)CCCN[C@@H](Cc2ccccc2)C(=O)O)sc1-c1ccc(Cl)c(S(C)(=O)=O)c1` [Example 36, N-[4-({5-[4-Chloro-3-(methylsulfonyl)phenyl]-4-methyl-1,3-thiazol-2-yl}amino)-4-oxobutyl]-L-phenylalanine], the IC50 on PI3Kγ (human) is above 1 µM.

Regarding `Cc1nc(NC(=O)CCCN[C@@H](COC(C)(C)C)C(=O)O)sc1-c1ccc(Cl)c(S(C)(=O)=O)c1` [Example 37, O-tert-Butyl-N-[4-({5-[4-chloro-3-(methylsulfonyl)phenyl]-4-methyl-1,3-thiazol-2-yl}amino)-4-oxobutyl]-L-serine], the IC50 on PI3Kγ (human) was above 1 µM. Take `Cc1nc(NC(=O)CCN[C@@H](C)C(=O)O)sc1-c1ccc(Cl)c(S(C)(=O)=O)c1` [Example 38, N-[3-({5-[4-Chloro-3-(methylsulfonyl)phenyl]-4-methyl-1,3-thiazol-2-yl}amino)-3-oxopropyl]-L-alanine]: at PI3Kγ (human), the IC50 was above 1 µM.

Turning to `Cc1nc(NCCCN[C@@H](CC(C)C)C(=O)O)sc1-c1ccc(Cl)c(S(C)(=O)=O)c1` [Example 39, N-[3-({5-[4-Chloro-3-(methylsulfonyl)phenyl]-4-methyl-1,3-thiazol-2-yl}amino)propyl]-L-leucine], the IC50 at PI3Kγ (human) is above 1 µM. For `Cc1nc(NCC2CCC(N[C@@H](CC(C)C)C(=O)O)CC2)sc1-c1ccc(Cl)c(S(C)(=O)=O)c1` (stereo partly drawn) [Example 40, N-{4-[({5-[4-Chloro-3-(methylsulfonyl)phenyl]-4-methyl-1,3-thiazol-2-yl}amino)methyl]cyclohexyl}-L-leucine], at PI3Kγ (human), the IC50 is above 1 µM. Consider `CC(=O)Nc1nc(C)c(-c2ccc(Cl)c(S(=O)(=O)N[C@@H](C)C(=O)O)c2)s1` [Example 41, N-{[5-(2-Acetamido-4-methyl-1,3-thiazol-5-yl)-2-chlorophenyl]sulfonyl}-L-alanine], for which the IC50 on PI3Kγ (human) was above 1 µM. Still for that read-out and setting: with `CC(=O)Nc1nc(C)c(-c2ccc(Cl)c(S(=O)(=O)N[C@@H](COC(C)(C)C)C(=O)O)c2)s1` [Example 42, N-{[5-(2-Acetamido-4-methyl-1,3-thiazol-5-yl)-2-chlorophenyl]sulfonyl}-O-tert-butyl-L-serine] the figure was above 1 µM; with `CC(=O)Nc1nc(C)c(-c2ccc(Cl)c(S(=O)(=O)NCCN[C@@H](CC(C)C)C(=O)O)c2)s1` [Example 43, N-[2-({[5-(2-Acetamido-4-methyl-1,3-thiazol-5-yl)-2-chlorophenyl]sulfonyl}amino)ethyl]-L-leucine], above 1 µM; with `CC(=O)Nc1nc(C)c(-c2ccc(Cl)c(S(=O)(=O)N[C@@H](CO)C(=O)O)c2)s1` [Example 44, N-{[5-(2-Acetamido-4-methyl-1,3-thiazol-5-yl)-2-chlorophenyl]sulfonyl}-L-serine], above 1 µM. `Cc1nc(NC(=O)CCCN[C@@H](CO)C(=O)O)sc1-c1ccc(Cl)c(S(C)(=O)=O)c1` [Example 45, N-[4-({5-[4-Chloro-3-(methylsulfonyl)phenyl]-4-methyl-1,3-thiazol-2-yl}amino)-4-oxobutyl]-L-serine]: the IC50 on PI3Kγ (human) is above 1 µM.
